Results published in US6384015B1, “Selective lysis of malaria infected erythrocytes” (priority 1997, dated 2002).

Test system: P. falciparum (New Guinean isolate D10)
Assay: Parasitemia assay in P. falciparum infected human erythrocytes
Format: cell-based
Method: P. falciparum (New Guinean isolate D10) cultures were grown and maintained substantially as described in Trager et al. (1976) Science 193, 673-675. Human type O+ blood was obtained from healthy donors. Magainin 2 (Matsuzaki et al., 1995, supra) was made by solid phase peptide synthesis. Parasitemia assays were performed substantially as described in Pasvol et al (1978) Ann Trop Med Parasitol 72, 87-92 and Magowan et al. (1995) Blood 86, 3196-3204. […] Each group was done in triplicate and 7,500 erythrocytes were counted for each data point. […]
FIG. 1 provides a graphical representation of the data showing the inhibition of parasitemia in infected human erythrocytes over the foregoing time courses and concentrations. In the figure, ● represents data points for the untreated cells, ▪ represents data points for cells treated at 10 uM, ▴ at 25 uM, and ▾ at 50 uM.

Substance: Magainin 2
- parasitemia (10 uM magainin 2, Day 1): 0.92
- parasitemia (10 uM magainin 2, Day 2): 1.88
- parasitemia (10 uM magainin 2, Day 3): 2.40
- parasitemia (10 uM magainin 2, Day 4): 4.52
- parasitemia (25 uM magainin 2, Day 1): 0.41
- parasitemia (25 uM magainin 2, Day 2): 1.88
- parasitemia (25 uM magainin 2, Day 3): 1.61
- parasitemia (25 uM magainin 2, Day 4): 3.68
- parasitemia (50 uM magainin 2, Day 1): 0.52
- parasitemia (50 uM magainin 2, Day 2): 1.43
- parasitemia (50 uM magainin 2, Day 3): 1.96
- parasitemia (50 uM magainin 2, Day 4): 2.87
- inhibition of parasitemia in infected human erythrocytes (10, 25 and 50 uM, over the time course): dose and time dependent inhibitions of parasitemia
- selective lysis of infected versus non-infected erythrocytes (P. falciparum infected blood-borne human erythrocytes, Examples 1 and 2): particular effective at selectively lysing P. falciparum infected blood-borne human erythrocytes as compared with non-infected cells
